“Also recorded” adds a separate entry of the source. Bridge positions count the residues as written; N and C are the ends. Ends that are not written are not given here.
Key:
PASMCs [1] = test: Changes in membrane potential (Em) in PASMCs, DiBAC4(3) fluorescence; type: cell-based, rat; details: agent alone; for increase in DiBAC4(3) fluorescence: KCl 60 mM, ET-1 10^−8 M
Protocol: (§1) The method for obtaining single PASMCs has been described previously in Shimoda L. A., et al., Am J Physiol 274: 842-853 (1998), which is hereby incorporated by reference in its entirety. Intrapulmonary arteries (200-600 μm o.d.) were isolated from male Wistar rats (250-350 g) and cleaned of connective tissue. After the lumen was gently rubbed with a cotton swab to remove the endothelial cells, the arteries were allowed to recover for 30 minutes in cold (4° C.) HBSS containing (in mM): 130 NaCl, 5 KCl, 1.2 MgCl2, 1.5 CaCl2, 10 N-[2-hydroxyethyl]piperazine-N′-[2-ethanesulfonic acid] (HEPES) and 10 glucose, with pH adjusted to 7.2 with 5 M NaOH, followed by 20 minutes in reduced-Ca^2+ (20 μM CaCl2) HBSS at room temperature. The tissue was enzymatically digested in reduced-Ca^2+ HBSS containing collagenase (type I; 1750 U/ml), papain (9.5 U/ml), bovine serum albumin (2 mg/ml) and dithiothreitol (1 mM) at 37° C. for 20 minutes. Following digestion, single smooth muscle cells were dispersed by gentle trituration with a wide-bore transfer pipette in Ca^2+-free HBSS and the cell suspension was placed on 25 mm glass cover slips. PASMCs were transiently cultured in Ham's-F-12 media supplemented with 0.5% fetal bovine serum and 1% penicillin/streptomycin for 24-48 hrs. before study.
Changes in membrane potential were measured using the fluorescence dye, DiBAC4(3), which was excited at 490 nm and detected at 510 nm. Cells were loaded by continuous perfusion with Kreb's solution containing 500 nM DiBAC4(3) and were perfused for at least 15 minutes before beginning measurements to insure stable uptake of dye. Baseline DiBAC4(3) fluorescence was monitored for 5 minutes with control Kreb's, followed by 10 minutes with Kreb's in the presence or absence of AZ (100 μM). At the end of this period, cells were challenged with KCl (60 mM) or endothelin-1 (ET-1) (10^−8 M). Since DiBAC4(3) is a single wavelength dye, any change in the concentration of the dye in the perfusion medium (i.e., differing concentrations between perfusion reservoirs) could result in a change in fluorescence that is not due to a change in membrane potential. To minimize the possibility of this type of error, all experiments were performed using inflow from a single reservoir into which AZ, KCl or ET-1 were dissolved directly.
AZ has recently been proposed to alter the activation of Ca^2+-activated K^+ channels, causing hyperpolarization. See Pickkers P., et al., Br J Pharmacol 132: 443-450 (2001); Tricarico D., et al., Ann Neurol 48: 304-312 (2000); and Tricarico D., et al., Faseb J 18: 760-761 (2004), which are hereby incorporated by reference in their entirety. Since depolarization is believed to contribute to the hypoxia-induced increase in [Ca^2+]i, AZ-induced hyperpolarization could prevent activation of voltage-gated Ca^2+ channels and an increase in [Ca^2+]i in response to hypoxia. In order to test this possibility, the Em-sensitive fluorescent dye, DiBAC4(3) was used. […] Baseline fluorescence was relatively stable over time, decreasing by 4.11±0.4% over 10 minutes (n=90 cells).

PASMCs [2] = test: Basal intracellular Ca2+ concentration in PASMCs (Fura-2); type: cell-based, rat
Protocol: as §1, with “Intrapulmonary” for “The method for obtaining single PASMCs has been described previously in Shimoda L. A., et al., Am J Physiol 274: 842-853 (1998), which is hereby incorporated by reference in its entirety. Intrapulmonary”, “The tissue was enzymatically digested in reduced-Ca^2+ HBSS containing collagenase (type I; 1750 U/ml), papain (9.5 U/ml), bovine serum albumin (2 mg/ml) and dithiothreitol (1 mM) at 37° C. for 20 minutes.” left out
(§2) Acute hypoxia increases intracellular [Ca^2+] in pulmonary arterial smooth muscle by enhancing capacitative Ca^2+ entry. […] Ratiometric measurement of fluorescence from the dye was performed on a workstation (Intracellular Imaging Inc, Cincinnati, Ohio) consisting of a Nikon TSE 100 Ellipse inverted microscope with epi-fluorescence attachments. The light beam from a xenon arc lamp was filtered at 340 and 380 nm, and focused onto the PASMCS under examination via a 20× fluorescence objective (Super Fluor 20, Nikon). Light emitted from the cell at 510 nm was returned through the objective and detected by a cooled CCD imaging camera. An electronic shutter (Sutter Instruments) was used to minimize photobleaching of dye. Protocols were executed and data collected on-line with InCyte software (Intracellular Imaging Inc). [Ca^2+]i was estimated from in vitro calibration solutions.

PASMCs [3] = test: Hypoxia-induced increase in [Ca2+]i in PASMCs (4% O2); type: cell-based, rat
Protocol: as §1, with “Intrapulmonary” for “The method for obtaining single PASMCs has been described previously in Shimoda L. A., et al., Am J Physiol 274: 842-853 (1998), which is hereby incorporated by reference in its entirety. Intrapulmonary”, “The tissue was enzymatically digested in reduced-Ca^2+ HBSS containing collagenase (type I; 1750 U/ml), papain (9.5 U/ml), bovine serum albumin (2 mg/ml) and dithiothreitol (1 mM) at 37° C. for 20 minutes.” left out
as §2

PASMCs [4] = test: KCl-induced Ca2+ responses in PASMCs; type: cell-based, rat; details: 100 μM
Protocol: as §1, with “Intrapulmonary” for “The method for obtaining single PASMCs has been described previously in Shimoda L. A., et al., Am J Physiol 274: 842-853 (1998), which is hereby incorporated by reference in its entirety. Intrapulmonary”, “The tissue was enzymatically digested in reduced-Ca^2+ HBSS containing collagenase (type I; 1750 U/ml), papain (9.5 U/ml), bovine serum albumin (2 mg/ml) and dithiothreitol (1 mM) at 37° C. for 20 minutes.” left out
as §2

PASMCs [5] = test: Intracellular pH (pHi) in PASMCs (BCECF-AM); type: cell-based, rat
Protocol: as §1
pHi within PASMCs was monitored using the cell permeant pH sensitive dye 2′,7′-bis(carboxyethyl)-5(6)-carboxyflourescein (BCECF-AM). Cells were incubated with BCECF-AM for 60 min at 37° C. under an atmosphere of 21% O2-5% CO2. Cells were then washed with Kreb's solution for 15 min at 37° C. to remove extracellular dye and allow complete de-esterification of cytosolic dye. Cells were excited with light at 490 and 440 nm and light emitted from the cells was detected at 530 nm. The ratio of 490 to 440 nm emission was calculated and converted into pH values by performing a calibration curve after each experiment. PASMCs were subjected to a high K^+ buffer containing 10 μM nigericin, which allowed the cell to adopt the pH of the high K^+ buffer. Two high K^+/nigericin buffers were used to set pH to 6.5 or 7.5, pHi was estimated from in situ calibration after each experiment. Cells were perfused with a solution containing (in mM): 105 KCl, 1 MgCl2, 1.5 CaCl2, 10 glucose, 20 HEPES-Tris and 0.01 nigericin to allow pHi to equilibrate to external pH as in Quinn D. A., et al., Am J Respir Cell Mol Biol 5: 586-591 (1991), which is hereby incorporated by reference in its entirety. A two point calibration was created from fluorescence measured as pHi was adjusted with KOH from 6.5 to 7.5. Intracellular H^+ ion concentration ([H^+]i) was determined from pHi using the formula: pHi=−log ([H^+]i).

carbonic anhydrase = test: Carbonic anhydrase inhibition; type: biochemical
From the text: Benzolamide (BZ) was obtained from Dr. Thomas H. Maren, University of Florida Department of Pharmacology.

Molecule: [Cl-].[K+] [KCl]
- increase in DiBAC4(3) fluorescence (PASMCs [1]): 61.58±12.8%

Molecule: CC(N/C(=N\C#N)Nc1ccncc1)C(C)(C)C (stereo not drawn) [pinacidil]
- decrease in DiBAC4(3) fluorescence (PASMCs [1]; 100 μM): 19.76±3.3%

Molecule: endothelin-1 (CSCSSLMDKECVYFCHLDIIW; disulfide 1-15, 3-11; ends not checked; UniProt P05305 53-73, looked up) [ET-1]
- increase in DiBAC4(3) fluorescence (PASMCs [1]): 75.6±13.4%

Molecule: CNS(=O)(=O)c1nnc(NC(C)=O)s1 [N-Meth-AZ]
- basal [Ca^2+]i, Treatment (PASMCs [2]; 100 μM, after 10 min of perfusion): 200.9 ± 11.3 nM
- basal [Ca^2+]i, Baseline (PASMCs [2]; before perfusion with the compound): 193.4 ± 11.0 nM
- increase in [Ca^2+]i induced by hypoxia (PASMCs [3]; 100 μM, control 141.1±32.2 nM): 33.2 ± 17.4 nM
- effect on hypoxia-induced increase in [Ca^2+]i (PASMCs [3]; 10-100 μM): markedly reduced; also recorded: prevented
- effect on KCl-induced increase in [Ca^2+]i (PASMCs [4]): similar
- basal pHi, Treatment (PASMCs [5]; 100 μM): 7.12±0.01
- effect on basal pHi (PASMCs [5]; 100 μM): no significant effect; also recorded: minimal effect
- basal pHi, Baseline (PASMCs [5]; before the compound): 7.13±0.02
- CA inhibiting action (carbonic anhydrase): no CA inhibiting action
